What all share (assay): Fungal susceptibility test, broth microdilution method (MIC)
Holding throughout (format): cell-based
On the technique in general: Dilution methods test growth across graded concentrations, often in twofold steps.

In assay [1] the test system is Candida albicans TIMM 1623. As to conditions: TIMM1623, 48 h. How it is done: (§1) The fungal susceptibility tests on test substances were conducted by the broth microdilution method equivalent to Clinical and Laboratory Standards Institute method. The medium used in the susceptibility tests was RPMI1640 adjusted to pH 7.0 with 0.165 mol/L morpholinepropanesulfonic acid (MOPS) and 50% sodium hydroxide (RPMI/MOPS). Each test substance was dissolved in DMSO and serially diluted in 2-fold increments with DMSO on a 96-well microplate. Then, the dilutions were dispensed by 1 μL to a 96-well microplate. Candida albicans TIMM 1623 cultured overnight at 35° C. in Sabouraud's agar medium was suspended in sterile saline. The number of cells was counted under a biological microscope, and the fungal suspension was diluted with RPMI/MOPS to prepare the inoculum solution (approximately 1×10^3 cells/mL). Alternatively, Candida albicans TIMM 1623 stored at −80° C. was diluted with RPMI/MOPS to prepare the inoculum solution (approximately 1×10^3 CFU/mL). Aspergillus fumigatus TIMM 0063 stored at 5° C. was diluted with RPMI/MOPS to prepare the inoculum solution (approximately 1×10^4 CFU/mL). Trichophyton rubrum NBRC 5467 stored at 5° C. or −80° C. was diluted with RPMI/MOPS to prepare the inoculum solution (approximately 2×10^3 CFU/mL). The 199 μL of inoculum solution was dispensed to each well to prepare the microplate containing the designated concentrations of test substance, medium and fungal cells. Candida albicans and Aspergillus fumigatus were cultured at 35° C. for 2 days. Trichophyton rubrum was cultured at 35° C. for 4 days. After the completion of culture, MIC was determined by visual observation. The MICs of Candida albicans and Aspergillus fumigatus were set to the lowest concentration at which approximately 50% growth inhibition was seen, when compared with a growth control without the addition of the test substance. The MIC of Trichophyton rubrum was set to the lowest concentration at which approximately 80% growth inhibition was seen, when compared with a growth control without the addition of the test substance.

Assay [2] concerns Aspergillus fumigatus TIMM 0063. Conditions: TIMM0063, 48 h. How it is done:
as §1

Assay [3] relates to Trichophyton rubrum NBRC 5467. Conditions: NBRC5467, 96 h. The method, then: as §1
[4] abbreviates: RPMI/MOPS pH 7.0, 35° C. for 2 days, visual, lowest concentration with approximately 50% growth inhibition, read-out: MIC (μg/mL) C. albicans TIMM1623.
Setting [5] is: RPMI/MOPS pH 7.0, 35° C. for 2 days, visual, lowest concentration with approximately 50% growth inhibition, read-out: MIC (μg/mL) A. fumigatus TIMM 0063.
Setting [6] is: pH 7, read-out: MIC (μg/mL) C. albicans TIMM1623.
Where [7] appears, read: pH 7, read-out: MIC (μg/mL) T. rubrum NBRC5467.
The mark [8] stands for this setting: pH 7, read-out: MIC (μg/mL) A. fumigatus TIMM 0063.
[9] abbreviates: RPMI/MOPS pH 7.0, 35° C. for 4 days, visual, lowest concentration with approximately 80% growth inhibition, read-out: MIC (μg/mL) T. rubrum NBRC5467.

The record followed here is patent US9045466B2, “Amidine compound or salt thereof” (priority 2011, dated 2015).

Values after ≈ are worked out from the molar mass of the structure shown. Counter-ions that a name gives are not always drawn. Like-named read-outs stand apart in the source and are kept apart here.

As to `CCN(C)/C=N/c1cc(C)c(Cc2nc(-c3cnc(OC)cn3)cs2)cc1C` [Example 26, N-Ethyl-N′-(4-{[4-(5-methoxypyrazin-2-yl)-1,3-thiazol-2-yl]methyl}-2,5-dimethylphenyl)-N-methylimidoformamide hydrobromide], the MIC in assay [1] (setting [4]) and in assay [2] (setting [5]) was 0.0625 µg/mL throughout.
Consider `CCN(C)/C=N/c1cc(C)c(Cc2nc(-c3ccc(C)cc3)cs2)cc1C` [Example 3, N′-(2,5-Dimethyl-4-{[4-(4-methylphenyl)-1,3-thiazol-2-yl]methyl}phenyl)-N-ethyl-N-methylimidoformamide dihydrochloride], for which the values for the MIC in assay [1] (setting [6]), in assay [3] (setting [7]) and in assay [2] (setting [8]) were 0.0156 µg/mL, 0.0005 µg/mL and 0.0156 µg/mL, respectively.
For the compound `CCN(C)/C=N/c1cc(C)c(Cc2nc(C(C)(C)C)cs2)cc1C` [Example 29, N′-{4-[(4-Tert-butyl-1,3-thiazol-2-yl)methyl]-2,5-dimethylphenyl}-N-ethyl-N-methylimidoformamide dihydrochloride], the MIC in assay [1] (setting [6]) came out at 0.0625 µg/mL; in assay [3] (setting [7]), 0.0039 µg/mL.
As for `CCN(C)/C=N/c1cc(C)c(Cc2nc(-c3ccc(C(C)(C)C)cc3)cs2)cc1C` [Example 17, N′-(4-{[4-(4-Tert-butylphenyl)-1,3-thiazol-2-yl]methyl}-2,5-dimethylphenyl)-N-ethyl-N-methylimidoformamide dihydrochloride], the MIC in assay [1] (setting [6]) was 0.0313 µg/mL; in assay [3] (setting [7]) it was 0.002 µg/mL.
With `CCN(C)/C=N/c1cc(C)c(Cc2nc(-c3ccc(C)cc3)ns2)cc1C` [Example 16, N′-(2,5-Dimethyl-4-{[3-(4-methylphenyl)-1,2,4-thiadiazol-5-yl]methyl}phenyl)-N-ethyl-N-methylimidoformamide], the MIC in assay [1] (setting [4]) stood at 0.0313 µg/mL (≈ 0.0827 µM); in assay [3] (setting [9]) it was 0.002 µg/mL (≈ 0.00528 µM); in assay [2] (setting [5]) it was 0.0313 µg/mL (≈ 0.0827 µM).
For `CCN(C)/C=N/c1cc(C)c(Cc2nc(COc3ccc(C)cc3)cs2)cc1C` [Example 60, N′-[2,5-Dimethyl-4-({4-[(4-methylphenoxy)methyl]-1,3-thiazol-2-yl}methyl)phenyl]-N-ethyl-N-methylimidoformamide], the MIC in assay [1] (setting [4]) worked out at 0.0156 µg/mL (≈ 0.0383 µM); in assay [3] (setting [9]) it was 0.001 µg/mL (≈ 0.00245 µM).
In the case of `CCN(C)/C=N/c1cc(C)c(Cc2nc(-c3ccc(Cl)cc3)cs2)cc1C` [Example 49, N′-(4-{[4-(4-Chlorophenyl)-1,3-thiazol-2-yl]methyl}-2,5-dimethylphenyl)-N-ethyl-N-methylimidoformamide hydrochloride], the MIC in assay [1] (setting [6]) was 0.0156 µg/mL; in assay [2] (setting [8]), 0.0625 µg/mL.
Consider `CCN(C)/C=N/c1cc(C)c(Cc2nc(-c3cscn3)cs2)cc1C` [Example 48, N′-[4-(4,4′-Bi-1,3-thiazol-2-ylmethyl)-2,5-dimethylphenyl]-N-ethyl-N-methylimidoformamide hydrochloride], for which the results for the MIC in assay [1] (setting [6]) and in assay [3] (setting [7]) were 0.0625 µg/mL and 0.0078 µg/mL, respectively.
For `CCN(C)/C=N/c1cc(C)c(Cc2nc(-c3ncc(C(C)(C)C)s3)cs2)cc1C` [Example 20, N′-{4-[(5-Tert-butyl-2,4′-bi-1,3-thiazol-2′-yl)methyl]-2,5-dimethylphenyl}-N-ethyl-N-methylimidoformamide dihydrochloride], in that order: 0.0313 µg/mL and 0.002 µg/mL.
Take `CCN(C)/C=N/c1cc(C)c(Cc2nc(-c3ccc(C)cc3F)cs2)cc1C` [Example 59, N-Ethyl-N′-(4-{[4-(2-fluoro-4-methylphenyl)-1,3-thiazol-2-yl]methyl}-2,5-dimethylphenyl)-N-methylimidoformamide dihydrochloride]: the MIC in assay [1] (setting [6]) was 0.0156 µg/mL; in assay [3] (setting [7]), 0.0005 µg/mL; in assay [2] (setting [8]), 0.0313 µg/mL.
For `Cc1ccc(-c2csc(Cc3cc(C)c(/N=C/N4CCCC4)cc3C)n2)cc1` [Example 1, 2,5-Dimethyl-4-{[4-(4-methylphenyl)-1,3-thiazol-2-yl]methyl}-N-[(E)-pyrrolidin-1-ylmethylidene]aniline], the MIC in assay [3] (setting [9]) was 0.0039 µg/mL (≈ 0.01 µM); in assay [2] (setting [5]), 0.0625 µg/mL (≈ 0.16 µM).
Regarding `CCN(C)/C=N/c1cc(C)c(Cc2nc(-c3cc(F)c(C)cc3F)cs2)cc1C` [Example 58, N′-(4-{[4-(2,5-Difluoro-4-methylphenyl)-1,3-thiazol-2-yl]methyl}-2,5-dimethylphenyl)-N-ethyl-N-methylimidoformamide hydrobromide], the MIC in assay [1] (setting [4]) is 0.0156 µg/mL; in assay [3] (setting [9]), 0.001 µg/mL; in assay [2] (setting [5]), 0.0625 µg/mL.
In the case of `CCN(C)/C=N/c1cc(C)c(Cc2nc(C(=O)c3ccc(Cl)cc3)cs2)cc1C` [Example 27, N′-[4-({4-[(4-Chlorophenyl)carbonyl]-1,3-thiazol-2-yl}methyl)-2,5-dimethylphenyl]-N-ethyl-N-methylimidoformamide hydrobromide], the MIC in assay [1] (setting [4]) and in assay [2] (setting [5]) was 0.0625 µg/mL in each case.
